Laboratory results as given in patent US20060110449A1, “Pharmaceutical composition” (priority 2004, published 2006).

Experiments:
[1] = test system: subjects with Seasonal Allergic Rhinitis (SAR) and Post-Nasal Drip; test: Phase II randomized, double-blind, placebo controlled study: symptom scores (post nasal drip, anterior rhinorrhea, total symptom score); settings: for least square mean change from baseline in the average AM/PM PRIOR post nasal drip score, percent / least square mean change from baseline in the average AM/PM PRIOR post nasal drip score: 7-day Treatment Phase, Oxy 5 mg BID, combinations given concurrently BID; for least square mean change from baseline in the average AM/PM PRIOR post nasal drip score: all randomized subjects; for anterior rhinorrhea treatment difference vs. placebo: key secondary efficacy variable, BID, DL 2.5 mg, Oxy 5 mg
Excerpt: (§1) The total target enrollment was 500 subjects with 100 per arm. The study consisted of a 7-day Treatment Phase.
The primary efficacy variable was the change from baseline in the average AM/PM PRIOR post nasal drip score over the Treatment Phase of 7 days. The analysis was based on a main effect analysis of variance (ANOVA), which extracted sources of variation due to treatment and center. […] Pairwise treatment comparisons were examined using the 95% confidence intervals of the treatment differences at an unadjusted 2-sided alpha-level of 0.05.
After the examination of post nasal drip, the key secondary efficacy variable, anterior rhinorrhea, was examined in the same manner.
There were 38 subjects excluded from the efficacy evaluable subset. A majority of these subjects were excluded due to insufficient efficacy data. Determination of evaluability was perfomed prior to unblinding the database. Though the treatment duration specified in the protocol was 7 days, about 70% of subjects also completed their diary on the AM of Day 8 since the final office visit was scheduled on that day. Therefore, the AM Day 8 data were included in the calculation of the one-week average.
The primary efficacy variable was the change from baseline in the average AM/PM PRIOR post nasal drip score over the Treatment Phase of 7 days.

[2] = test system: secretions of natural tear components; settings: preclinical testing, reportedly; cited from earlier work
[3] = DL 2.5 mg BID, Oxy 5 mg BID, combinations BID; 7 days
Excerpt: as §1

[4] = test system: symptoms most closely associated with chronic nasal congestion (e.g., stuffy nose); settings: reportedly; cited from earlier work

## Clc1ccc2c(c1)CCc1cccnc1C2=C1CCNCC1 [DL, desloratadine]
[1]; DL 2.5 mg BID
  least square mean change from baseline in the average AM/PM PRIOR post nasal drip score, percent: −24.8%
  least square mean change from baseline in the average AM/PM PRIOR post nasal drip score: −0.68
[1]; DL 2.5 mg BID, 7 days
  total symptom score excluding post nasal drip, treatment difference vs. placebo: 0.71 point
[1]; 7 days
  anterior rhinorrhea treatment difference vs. placebo: 0.03 points

## O=c1ccn([C@@H]2O[C@H](COP(=O)(O)OP(=O)(O)OP(=O)(O)OP(=O)(O)OC[C@H]3O[C@@H](n4ccc(=O)[nH]c4=O)[C@H](O)[C@@H]3O)[C@@H](O)[C@H]2O)c(=O)[nH]1 [diquafosol, Diquafosol tetrasodium]
[2]
  secretions of natural tear components: increased

## CCN(CC)CC#CCOC(=O)C(O)(c1ccccc1)C1CCCCC1 (centres unmarked) [Oxy, Oxybutynin]
[3]
  discontinuation rate from the treatment phase: 5.56%
  percentage of subjects reporting any treatment emergent adverse events: 30.6%
  percentage of subjects reporting dry mouth: 13.9%
  subjects reporting any treatment emergent adverse events: 33 subjects
  subjects reporting dry mouth: 15 subjects
[1]; DL 2.5 mg BID
  least square mean change from baseline in the average AM/PM PRIOR post nasal drip score, percent: −17.8%
  least square mean change from baseline in the average AM/PM PRIOR post nasal drip score: −0.49
[1]; 7 days
  anterior rhinorrhea treatment difference vs. placebo: 0.04 points

## Oc1cccc(Nc2ncc(F)c(Nc3cccc(O)c3)n2)c1 [R112]
[4]
  absolute difference over placebo: 9%
  improvement from baseline measurements (prior to drug initiation): up to 38%
  relative improvement over placebo: greater than 20%
  symptoms most closely associated with chronic nasal congestion (e.g., stuffy nose), over placebo: improved
